The text below walks through data of patent US8206732B2, “Pyrithione biocides enhanced by silver, copper, or zinc ions” (Arch Chemicals, Inc., priority 1999, dated 2012).

Each structure is given as a SMILES string.

Holding throughout (type): cell-based
Assay [1] deals with Staphylococcus aureus 27217. The assay is described as follows: Checkerboard MIC test, pyrithiones with silver salts. The following applies: silver ion alone or in the inhibitory mixture; TSB pH 7.3, 35° C., 1 to 2 days.
Assay [2] concerns Pseudomonas aeruginosa ATCC 9027. The assay is described as follows: MIC in Tryptic Soy Broth, microtiter (Example 1). The following applies: TSB, 28° C., incubated 5-6 days; single agent (NaPT without Cu).
Assay [3] deals with Aspergillus niger ATCC 6275. The experiment in a line: MIC in Tryptic Soy Broth, microtiter (Example 1).
In assay [4] the test system is seven cultures of bacteria. The assay is described as follows: Challenge test in soluble oil metalworking fluid, bacteria (Example 6). The following applies: soluble oil MWF, 10 ppm Zn, 100 ppm NaPT, 50 ppm ZPT or 50 ppm CuPT as in column head.
The next assay concerns two cultures of fungi. The assay is described as follows: Challenge test in soluble oil metalworking fluid, fungi (Example 6). The following applies: soluble oil MWF, 10 ppm Zn, 100 ppm NaPT, 50 ppm ZPT or 50 ppm CuPT as in column head.
The subject of assay [5] is Staphylococcus aureus ATCC 27217. The assay is described as follows: Zone of inhibition test (paper disc on TSA). The following applies: 6.5 mm discs; 0.135% pyrithione, 0.1% ZnCl2 or both; 28° C., 24 hr.
The test system of assay [6] is Escherichia coli ATCC 10536. The experiment in a line: Zone of inhibition test (paper disc on TSA). The following applies: 6.5 mm discs; 0.135% pyrithione, 0.1% ZnCl2 or both; 28° C., 24 hr.
For assay [7], the system named is Pseudomonas aeruginosa NCIMB 6749. The assay is described as follows: Zone of inhibition test (paper disc on TSA). The following applies: 6.5 mm discs; 0.135% pyrithione, 0.1% ZnCl2 or both; 28° C., 24 hr.
In assay [8] the test system is Staphylococcus aureus ATCC 27217. The experiment in a line: Checkerboard MIC test, pyrithiones with zinc salts. The following applies: pyrithione alone or pyrithione concentration in the inhibitory mixture; TSB, 28 C, 3 days.
Assay [9] relates to Pseudomonas aeruginosa NCIMB 6749. The experiment in a line: Checkerboard MIC test, pyrithiones with zinc salts. The following applies: pyrithione alone or pyrithione concentration in the inhibitory mixture; TSB, 28 C, 3 days.
A further assay concerns Fusarium sp. The assay is described as follows: Checkerboard MIC test, pyrithiones with zinc salts. The following applies: pyrithione alone or pyrithione concentration in the inhibitory mixture; TSB, 28 C, 5 days. Here is the method:
Mixtures of pyrithione and zinc or silver in various proportions were tested for relative efficacy by a modification of the procedure described by Dougherty, et al.
Equal volumes of bacteria (10^6 cells/ml) or fungi (10^5 spores/ml) were added to each microtiter plate well. The plates were incubated at 28 C for 3 days (bacteria) or 5 days (fungi), and the minimum inhibitory concentration (MIC) of biocide was determined. The Fractional Inhibitory Concentration (FIC=concentration of biocide in an inhibitory mixture divided by the MIC of the pure biocide) was determined, and the FIC Index (sum of the two FIC's) was calculated. The type of interaction was categorized according to the magnitude of the Index: Synergistic (<1), Additive (1), or Antagonistic (>1).

On to `[Ag+].[Ag+].[O-2]` [Ag2O], for which, in [1], the “MIC Ag^+1 Ion” value turned out to be 29.8 ppm.

As for `On1ccccc1=S.On1ccccc1=S.[Cu]` [CuPT2, copper pyrithione], the MIC in [2] is recorded as more than 1024 ppm; in [3] (TSB, 28° C., incubated 7-8 days, single agent (NaPT without Cu)), 16 ppm. Besides, in assay [3] (Aspergillus niger), the “molar MIC” value was determined as 51 µM. The “BACTERIA (cfu/ml)” value in assay [4] (DAY 0) is listed as 3.2 × 10^7 cfu/ml; in assay [4] (DAY 6) it was 1.5 × 10^7 cfu/ml; in [4] (DAY 13), 9.7 × 10^6 cfu/ml; in assay [4] (DAY 20), 1.9 × 10^6 cfu/ml. The “FUNGI (cfu/ml)” value in the assay with two cultures of fungi (DAY 0) is on record as 2.4 × 10^5 cfu/ml; with two cultures of fungi (DAY 6) it was 1000 cfu/ml; in the assay with two cultures of fungi (DAY 13) it was 680 cfu/ml; with two cultures of fungi (DAY 20), 370 cfu/ml.

As to `O.O.O.O=S(=O)([O-])[O-].[Mg+2].[O-][n+]1ccccc1SSc1cccc[n+]1[O-]` [MDS, MgSO4.3H2O adduct of 2,2′-dithiopyridine-1,1′-dioxide], the “Zone of Inhibition” value in [5] was determined as 28 mm; in [6], 31 mm; in assay [7] it was 0 mm. Further, the “MIC Pyrithione” value in [8] is 8 ppm; in assay [9], 1024 ppm; in the assay on Fusarium sp. it was more than 1843 ppm.

With `[Cl-].[Cl-].[Zn+2]` [ZnCl2], the “Zone of Inhibition” value in assay [5], in assay [6] and in assay [7] was 0 mm throughout.
